SMILES strings stand for the structures.

Assay [1] has as its system 9C9H9 mAb (anti-OTA mAb). The assay can be described thus: indirect competitive ELISA (ciELISA). In kind it is binding, mouse. Particulars: for IC50 of binding of mAb to OTA-OVA by free toxin: OTA-OVA coated as solid-phase antigen, FIG. 2B. The procedure:
(§1) Both the cdELISA (direct competitive ELISA) and ciELISA (indirect competitive ELISA) were used to determine the specificity of 9C9H9 mAb.
Indirect Competitive ELISA was than used to characterize each mAb. Briefly, each well of a microtiter plate was coated with 0.1 mL of the OTA-OVA and kept at 4° C. overnight. After the plate had been washed four times with Tween-PBS (0.35 mL/well; 0.05% Tween 20 in PBS) using an automated ELISA washer, 0.17 mL of gelatin-PBS (0.17 mL/well; 0.1% gelatin in PBS) was added and allowed to incubate at 37° C. for 30 min. The plate was washed again and 0.05 mL of OTA standard with concentrations from 0.01 to 100 ng/mL or extracted samples (0.05 mL/well in PBS) were added to each well, and then the anti-OTA mAb (25 ng/mL in PBS, 0.05 mL/well) was added to all wells and incubated at 37° C. for 50 min. After incubation, the plate was washed four times with Tween-PBS, and 0.1 mL of goat antimouse IgG-HRP conjugate (1:20000 dilution) was added and incubated at 37° C. for 45 min. The plate was washed four times with Tween-PBS, and 0.1 mL of TMB substrate solution was added. After 10 min of incubation at room temperature, 0.1 mL of 1 N hydrochloric acid was added to stop the reaction. Absorbance at 450 nm was determined in a Vmax automatic ELISA reader.
(In an ELISA, binding on a coated surface is turned into a signal by an enzyme label.)

Assay [2] has as its system 9C9H9 mAb (anti-OTA mAb). The assay is described as follows: direct competitive ELISA (cdELISA). Type of assay: binding, mouse. The settings on record: for concentrations causing 50% inhibition (IC50) binding of mAb to OTA-OVA by free toxin: FIG. 2A. The procedure: as §1
Another ELISA method (direct competitive ELISA) was used to characterize mAb. The rabbit anti-mouse-Fc antibody was diluted in PBS (2 μg/mL), and 0.1 mL of the diluted form was coated onto each well. After incubation at 37° C. for 1 h and washing with Tween-PBS. The anti-OTA mAb supernatant was diluted in PBS (5 μg/mL) and 0.1 mL of the diluted form was used to coat each well. After the plate had been incubated at 4° C. overnight, it was washed with Tween-PBS followed by blocking with gelatin-PBS at 37° C. for 30 min. The plate was washed again with Tween-PBS four times, and then OTA standard (0.05 mL/well in PBS) concentrations from 0.01 to 100 ng/mL or samples together with the OTA-HRP conjugate (30 ng/mL, in PBS, 0.05 mL/well) were added and incubated at 37° C. for 50 min. The plate was washed four times with PBS-Tween, and 0.1 mL of TMB substrate solution was added. After incubation at room temperature in the dark for 10 min, the reaction was terminated by adding 0.1 mL of 1 N HCl. The absorbance at 450 nm was determined in the Vmax automatic ELISA reader.

The mark [3] stands for this setting: at a concentration as high as 100 μg/mL.

`N[C@@H](Cc1ccccc1)C(=O)O` [phenylalanine]: the “inhibition of the binding of mAb to the marker antigen (OTA-OVA)” value in assay [1] (setting [3]) is on record as “did not inhibit”. Further, in assay [2] (setting [3]), the “inhibition of the binding of mAb to the marker antigen (OTA-HRP)” value is on record as “did not inhibit”.

With `C[C@@H]1Cc2ccc(C(=O)N[C@@H](Cc3ccccc3)C(=O)O)c(O)c2C(=O)O1` [OTB, ochratoxin B], the “IC50 of binding of mAb to OTA-OVA by free toxin” value (shortened to “IC50 of binding … by free toxin”) in assay [1] was 0.35 ng/mL. For the same molecule, the “concentrations causing 50% inhibition (IC50) binding of mAb to OTA-OVA by free toxin” value in assay [2] stood at 0.17 ng/mL.

For the molecule `CCOC(=O)[C@H](Cc1ccccc1)NC(=O)c1cc(Cl)c2c(c1O)C(=O)O[C@H](C)C2` [OTC, ochratoxin C], in assay [1], the “IC50 of binding … by free toxin” value came out at 0.25 ng/mL. In addition, in assay [2], the “concentrations causing 50% inhibition (IC50) binding of mAb to OTA-OVA by free toxin” value is reported as 0.28 ng/mL.

Consider `C[C@@H]1Cc2c(Cl)cc(C(=O)N[C@@H](Cc3ccccc3)C(=O)O)c(O)c2C(=O)O1` [OTA, ochratoxin A], for which, in assay [1], the “IC50 of binding … by free toxin” value stood at 0.28 ng/mL. In assay [2], the “concentrations causing 50% inhibition (IC50) binding of mAb to OTA-OVA by free toxin” value was found to be 0.32 ng/mL.

The values above are taken from US8003766B2, “Monoclonal antibody specific to ochratoxin A” (priority 2009, dated 2011).
